According to the OligoGym collection:
Oligonucleotides are written 5' to 3', each unit as a sugar letter and its base; * is a phosphorothioate linkage, no mark a phosphodiester; rarer units and linkages stand in square brackets, end groups in braces. Plain capitals give the bases only. d = 2'-deoxy (DNA); r = 2'-OH (RNA)
Also: test concentration or dose not given here.

The substances below were run against UBE2H (assay: reporter assay of Huesken 2005). Conditions: siRNA.
Substance “sense rArGrGrUrUrArCrGrArUrCrCrUrGrGrGrArGrGdTdT / antisense rCrCrUrCrCrCrArGrGrArUrCrGrUrArArCrCrUdCdA” has a normalised inhibition (eCFP-eYFP dual reporter) of 84.1%.
With “sense rArGrUrGrArArGrUrUrUrUrArUrGrGrArCrCrAdTdT / antisense rUrGrGrUrCrCrArUrArArArArCrUrUrCrArCrUdAdC” the normalised inhibition (eCFP-eYFP dual reporter) was 95.5%.
“sense rArGrUrGrGrArCrCrUrArCrCrUrGrArUrArArAdTdT / antisense rUrUrUrArUrCrArGrGrUrArGrGrUrCrCrArCrUdCdT” was tested, and the normalised inhibition (eCFP-eYFP dual reporter) was 108%.
Substance “sense rArUrArCrCrCrUrUrUrCrArArArUrCrUrCrCrAdTdT / antisense rUrGrGrArGrArUrUrUrGrArArArGrGrGrUrArUdTdT” has a normalised inhibition (eCFP-eYFP dual reporter) of 99.2%.
Work on “sense rArUrArGrGrArUrUrCrArUrGrArArUrArArArAdTdT / antisense rUrUrUrUrArUrUrCrArUrGrArArUrCrCrUrArUdAdG” yielded a normalised inhibition (eCFP-eYFP dual reporter) of 106%.
“sense rArUrCrGrArGrArGrUrArArArCrArUrGrArGrGdTdT / antisense rCrCrUrCrArUrGrUrUrUrArCrUrCrUrCrGrArUdGdA” was tested, and the normalised inhibition (eCFP-eYFP dual reporter) was 71.1%.
In the case of “sense rArUrCrUrArUrArGrGrArUrUrCrArUrGrArArUdTdT / antisense rArUrUrCrArUrGrArArUrCrCrUrArUrArGrArUdGdG”, the normalised inhibition (eCFP-eYFP dual reporter) is reported as 95.3%.
“sense rArUrGrArGrGrUrUrArCrGrArUrCrCrUrGrGrGdTdT / antisense rCrCrCrArGrGrArUrCrGrUrArArCrCrUrCrArUdGdT” was tested, and the normalised inhibition (eCFP-eYFP dual reporter) was 77.7%.
“sense rArUrGrGrArCrCrArCrArArGrGrArArCrArCrCdTdT / antisense rGrGrUrGrUrUrCrCrUrUrGrUrGrGrUrCrCrArUdAdA” showed a normalised inhibition (eCFP-eYFP dual reporter) of 34%.
In the case of “sense rArUrGrGrUrGrArCrGrCrUrGrCrArGrCrCrArUdTdT / antisense rArUrGrGrCrUrGrCrArGrCrGrUrCrArCrCrArUdTdG”, the normalised inhibition (eCFP-eYFP dual reporter) is reported as 86.6%.
In the case of “sense rArUrUrGrGrCrCrUrArUrCrCrUrArArCrCrCrCdTdT / antisense rGrGrGrGrUrUrArGrGrArUrArGrGrCrCrArArUdAdA”, the normalised inhibition (eCFP-eYFP dual reporter) is reported as 36.2%.
“sense rArUrUrUrGrArGrUrCrCrUrUrCrCrUrGrCrCrUdTdT / antisense rArGrGrCrArGrGrArArGrGrArCrUrCrArArArUdAdT” gave a normalised inhibition (eCFP-eYFP dual reporter) of 48.2%.
In the case of “sense rCrArArGrGrArArCrArCrCrArUrArUrGrArArGdTdT / antisense rCrUrUrCrArUrArUrGrGrUrGrUrUrCrCrUrUrGdTdG”, the normalised inhibition (eCFP-eYFP dual reporter) is reported as 99.5%.
“sense rCrArArUrArUrArUrUrUrGrArGrUrCrCrUrUrCdTdT / antisense rGrArArGrGrArCrUrCrArArArUrArUrArUrUrGdGdT” showed a normalised inhibition (eCFP-eYFP dual reporter) of 84.2%.
In the case of “sense rCrArGrArArArArUrUrArArArGrArGrUrArCrAdTdT / antisense rUrGrUrArCrUrCrUrUrUrArArUrUrUrUrCrUrGdCdT”, the normalised inhibition (eCFP-eYFP dual reporter) is reported as 78.6%.
Work on “sense rCrArGrArArGrArArUrArCrArArGrCrArGrArAdTdT / antisense rUrUrCrUrGrCrUrUrGrUrArUrUrCrUrUrCrUrGdGdT” yielded a normalised inhibition (eCFP-eYFP dual reporter) of 77.7%.
“sense rCrArGrCrCrArUrGrUrArCrCrUrCrCrArCrCrGdTdT / antisense rCrGrGrUrGrGrArGrGrUrArCrArUrGrGrCrUrGdCdA” showed a normalised inhibition (eCFP-eYFP dual reporter) of 61.4%.
Substance “sense rCrArGrGrArArGrArGrGrGrUrArCrCrGrGrGrGdTdT / antisense rCrCrCrCrGrGrUrArCrCrCrUrCrUrUrCrCrUrGdTdT” has a normalised inhibition (eCFP-eYFP dual reporter) of 74.7%.
“sense rCrArUrCrGrArGrArGrUrArArArCrArUrGrArGdTdT / antisense rCrUrCrArUrGrUrUrUrArCrUrCrUrCrGrArUrGdAdG” was tested, and the normalised inhibition (eCFP-eYFP dual reporter) was 70.2%.
“sense rCrArUrGrArArUrArArArArUrUrUrUrCrCrArUdTdT / antisense rArUrGrGrArArArArUrUrUrUrArUrUrCrArUrGdAdA” was tested, and the normalised inhibition (eCFP-eYFP dual reporter) was 64%.
“sense rCrCrArCrCrGrArCrCrArGrArArGrArArUrArCdTdT / antisense rGrUrArUrUrCrUrUrCrUrGrGrUrCrGrGrUrGrGdAdG” gave a normalised inhibition (eCFP-eYFP dual reporter) of 82.5%.
For “sense rCrCrArGrArArGrArArUrArCrArArGrCrArGrAdTdT / antisense rUrCrUrGrCrUrUrGrUrArUrUrCrUrUrCrUrGrGdTdC”, the normalised inhibition (eCFP-eYFP dual reporter) was 104%.
For “sense rCrCrArUrArUrGrArArGrGrCrGrGrArGrUrArUdTdT / antisense rArUrArCrUrCrCrGrCrCrUrUrCrArUrArUrGrGdTdG”, the normalised inhibition (eCFP-eYFP dual reporter) was 102%.
“sense rCrCrGrArCrCrArGrArArGrArArUrArCrArArGdTdT / antisense rCrUrUrGrUrArUrUrCrUrUrCrUrGrGrUrCrGrGdTdG” gave a normalised inhibition (eCFP-eYFP dual reporter) of 86.4%.
With “sense rCrCrUrArArCrCrCrCrArUrArGrArUrCrCrUrCdTdT / antisense rGrArGrGrArUrCrUrArUrGrGrGrGrUrUrArGrGdAdT” the normalised inhibition (eCFP-eYFP dual reporter) was 66.9%.
“sense rCrGrArGrArGrUrArArArCrArUrGrArGrGrUrUdTdT / antisense rArArCrCrUrCrArUrGrUrUrUrArCrUrCrUrCrGdAdT” gave a normalised inhibition (eCFP-eYFP dual reporter) of 98%.
“sense rCrGrCrCrArCrGrGrArGrGrArGrGrCrGrCrUrGdTdT / antisense rCrArGrCrGrCrCrUrCrCrUrCrCrGrUrGrGrCrGdTdA” was tested, and the normalised inhibition (eCFP-eYFP dual reporter) was 66.8%.
“sense rCrGrUrCrArGrGrArArCrUrGrUrGrUrGrUrCrUdTdT / antisense rArGrArCrArCrArCrArGrUrUrCrCrUrGrArCrGdCdT” gave a normalised inhibition (eCFP-eYFP dual reporter) of 99.9%.
With “sense rCrUrArUrGrArUrCrUrUrArCrCrArArUrArUrAdTdT / antisense rUrArUrArUrUrGrGrUrArArGrArUrCrArUrArGdAdG” the normalised inhibition (eCFP-eYFP dual reporter) was 110%.
For “sense rCrUrUrGrGrArCrArGrCrUrCrUrCrUrArUrGrAdTdT / antisense rUrCrArUrArGrArGrArGrCrUrGrUrCrCrArArGdTdT”, the normalised inhibition (eCFP-eYFP dual reporter) was 81%.
Work on “sense rGrArArCrUrGrUrGrUrGrUrCrUrArGrArUrGrUdTdT / antisense rArCrArUrCrUrArGrArCrArCrArCrArGrUrUrCdCdT” yielded a normalised inhibition (eCFP-eYFP dual reporter) of 98.4%.
In the case of “sense rGrArArGrArArUrArCrArArGrCrArGrArArArAdTdT / antisense rUrUrUrUrCrUrGrCrUrUrGrUrArUrUrCrUrUrCdTdG”, the normalised inhibition (eCFP-eYFP dual reporter) is reported as 95.1%.
With “sense rGrArArUrArCrArArGrCrArGrArArArArUrUrAdTdT / antisense rUrArArUrUrUrUrCrUrGrCrUrUrGrUrArUrUrCdTdT” the normalised inhibition (eCFP-eYFP dual reporter) was 93.1%.
For “sense rGrArArUrUrUrGrUrArGrUrGrArArGrUrUrUrUdTdT / antisense rArArArArCrUrUrCrArCrUrArCrArArArUrUrCdAdT”, the normalised inhibition (eCFP-eYFP dual reporter) was 96.7%.
“sense rGrArCrGrCrUrGrCrArGrCrCrArUrGrUrArCrCdTdT / antisense rGrGrUrArCrArUrGrGrCrUrGrCrArGrCrGrUrCdAdC” gave a normalised inhibition (eCFP-eYFP dual reporter) of 55.3%.
With “sense rGrArGrGrUrUrArCrGrArUrCrCrUrGrGrGrArGdTdT / antisense rCrUrCrCrCrArGrGrArUrCrGrUrArArCrCrUrCdAdT” the normalised inhibition (eCFP-eYFP dual reporter) was 57.3%.
For “sense rGrArGrUrArCrArUrCrCrArGrArArArUrArCrGdTdT / antisense rCrGrUrArUrUrUrCrUrGrGrArUrGrUrArCrUrCdTdT”, the normalised inhibition (eCFP-eYFP dual reporter) was 77.6%.
Substance “sense rGrArGrUrArUrGrGrArArArGrUrUrArGrArGrUdTdT / antisense rArCrUrCrUrArArCrUrUrUrCrCrArUrArCrUrCdCdG” has a normalised inhibition (eCFP-eYFP dual reporter) of 83.6%.
“sense rGrArUrArArArUrArCrCrCrUrUrUrCrArArArUdTdT / antisense rArUrUrUrGrArArArGrGrGrUrArUrUrUrArUrCdAdG” was tested, and the normalised inhibition (eCFP-eYFP dual reporter) was 102%.
“sense rGrArUrCrUrUrArCrCrArArUrArUrArUrUrUrGdTdT / antisense rCrArArArUrArUrArUrUrGrGrUrArArGrArUrCdAdT” showed a normalised inhibition (eCFP-eYFP dual reporter) of 78.3%.
For “sense rGrGrArGrGrArGrGrCrGrCrUrGrArArArGrArAdTdT / antisense rUrUrCrUrUrUrCrArGrCrGrCrCrUrCrCrUrCrCdGdT”, the normalised inhibition (eCFP-eYFP dual reporter) was 91.9%.
In the case of “sense rGrGrCrGrCrUrGrArArArGrArArCrArGrGrArAdTdT / antisense rUrUrCrCrUrGrUrUrCrUrUrUrCrArGrCrGrCrCdTdC”, the normalised inhibition (eCFP-eYFP dual reporter) is reported as 98.5%.
“sense rGrGrGrUrArCrCrGrGrGrGrArCrArGrCrUrCrAdTdT / antisense rUrGrArGrCrUrGrUrCrCrCrCrGrGrUrArCrCrCdTdC” gave a normalised inhibition (eCFP-eYFP dual reporter) of 71.9%.
“sense rGrGrUrGrArCrGrCrUrGrCrArGrCrCrArUrGrUdTdT / antisense rArCrArUrGrGrCrUrGrCrArGrCrGrUrCrArCrCdAdT” was tested, and the normalised inhibition (eCFP-eYFP dual reporter) was 91%.
Work on “sense rGrUrCrUrArGrArUrGrUrArArUrUrArArUrCrAdTdT / antisense rUrGrArUrUrArArUrUrArCrArUrCrUrArGrArCdAdC” yielded a normalised inhibition (eCFP-eYFP dual reporter) of 106%.
For “sense rGrUrGrArArGrUrUrUrUrArUrGrGrArCrCrArCdTdT / antisense rGrUrGrGrUrCrCrArUrArArArArCrUrUrCrArCdTdA”, the normalised inhibition (eCFP-eYFP dual reporter) was 63.8%.
Work on “sense rGrUrGrGrArCrCrUrArCrCrUrGrArUrArArArUdTdT / antisense rArUrUrUrArUrCrArGrGrUrArGrGrUrCrCrArCdTdC” yielded a normalised inhibition (eCFP-eYFP dual reporter) of 77.9%.
With “sense rUrArCrCrArArUrArUrArUrUrUrGrArGrUrCrCdTdT / antisense rGrGrArCrUrCrArArArUrArUrArUrUrGrGrUrAdAdG” the normalised inhibition (eCFP-eYFP dual reporter) was 48.6%.
“sense rUrArGrArUrGrUrArArUrUrArArUrCrArArArCdTdT / antisense rGrUrUrUrGrArUrUrArArUrUrArCrArUrCrUrAdGdA” gave a normalised inhibition (eCFP-eYFP dual reporter) of 46.5%.
“sense rUrArUrArGrGrArUrUrCrArUrGrArArUrArArAdTdT / antisense rUrUrUrArUrUrCrArUrGrArArUrCrCrUrArUrAdGdA” showed a normalised inhibition (eCFP-eYFP dual reporter) of 67.9%.
Substance “sense rUrArUrCrCrUrArArCrCrCrCrArUrArGrArUrCdTdT / antisense rGrArUrCrUrArUrGrGrGrGrUrUrArGrGrArUrAdGdG” has a normalised inhibition (eCFP-eYFP dual reporter) of 50.2%.
“sense rUrCrArGrUrUrArUrUrGrGrCrCrUrArUrCrCrUdTdT / antisense rArGrGrArUrArGrGrCrCrArArUrArArCrUrGrAdGdG” gave a normalised inhibition (eCFP-eYFP dual reporter) of 66.6%.
